The record followed here is ChEMBL document CHEMBL1201862, “PubChem BioAssay data set” (2004).

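Step 1: Grow cells in 96-well plates. Step 2: Expose to compound for 48 hours at 5 concentrations. Step 3: Interpolate endpoints linearly; if unreached, use highest concentration. At the GI50, growth is halved.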 Activity calls are given as the source filed them. Cut-off read from the data, not from the text of the source: active = GI50 up to about 1.1 µM and inactive = higher. Where only a bound is given, the exact number is not on record here.

Test systems include NCI-H460; SNB-75; NCI-H226; M14; RXF 393; OVCAR-8; UACC-257; SK-MEL-2; OVCAR-4; HL-60; HOP-92; OVCAR-5; U-251; ACHN; T47D; TK-10; SF-295; Malme-3M; HOP-62; SF-539.
Holding throughout (test): NCI tumour cell line growth inhibition, 48 h

In the case of `COC(=O)C1(Cc2ccc3c(c2)CCC3)Cc2ccc3c(c2C1=O)CCC3` (stereo unspecified), the GI50 with NCI-H460 is 12.7 µM (inactive); with SNB-75, 5.42 µM (inactive); with NCI-H226, 10.5 µM (inactive); in the experiment with M14, 4.26 µM (inactive); with RXF 393, 2.11 µM (inactive); in the experiment with OVCAR-8, 15.2 µM (inactive). For the same compound, the GI50 with UACC-257 is 8.65 µM (inactive); in the experiment with SK-MEL-2 it was 4.32 µM (inactive); in the experiment with OVCAR-4, 7.73 µM (inactive); in the experiment with HL-60 it was 2.86 µM (inactive); with HOP-92, 4.84 µM (inactive); in the experiment on OVCAR-5, 21.1 µM (inactive). For the same compound, the GI50 with U-251 was 4.65 µM (inactive); with ACHN it was 18.6 µM (inactive); in the experiment on T47D, 4.35 µM (inactive); in the experiment on TK-10, 11.8 µM (inactive); with SF-295, 3.72 µM (inactive); in the experiment with Malme-3M it was 4.02 µM (inactive). The GI50 in the experiment with HOP-62 was 7.23 µM (inactive); with SF-539, 5.68 µM (inactive).
`Cc1c(Cl)nc(Nc2nc3ccccc3[nH]2)nc1Cl`: the GI50 was > 100 µM (inactive) in the experiment on NCI-H460; > 100 µM (inactive) in the experiment with SNB-75; > 100 µM (inactive) in the experiment on NCI-H226; > 100 µM (inactive) in the experiment on M14; > 100 µM (inactive) in the experiment with RXF 393; 41.7 µM (inactive) in the experiment with OVCAR-8. Further, the GI50 was > 100 µM (inactive) in the experiment with UACC-257; > 100 µM (inactive) in the experiment with SK-MEL-2; 29 µM (inactive) in the experiment with OVCAR-4; > 100 µM (inactive) in the experiment with HL-60; 2.06 µM (inactive) in the experiment on HOP-92; > 100 µM (inactive) in the experiment with OVCAR-5. In addition, the GI50 in the experiment with U-251 is > 100 µM (inactive); in the experiment on ACHN it was > 100 µM (inactive); in the experiment with T47D, 43.7 µM (inactive); with TK-10 it was > 100 µM (inactive); in the experiment on SF-295 it was > 100 µM (inactive); with Malme-3M, > 100 µM (inactive). Also, the GI50 in the experiment on SF-539 was > 100 µM (inactive).
Regarding `c1cc2c(cc1NC1=NCCO1)OCO2`, the GI50 in the experiment with NCI-H460 is > 100 µM (inactive); with SNB-75, 45.9 µM (inactive); with NCI-H226 it was > 100 µM (inactive); with M14, > 100 µM (inactive); in the experiment with RXF 393 it was > 100 µM (inactive); in the experiment with OVCAR-8, > 100 µM (inactive). Besides, the GI50 with SK-MEL-2 is > 100 µM (inactive); in the experiment with OVCAR-4, > 100 µM (inactive); in the experiment with HL-60, 41.2 µM (inactive); in the experiment with HOP-92, > 70.3 µM (inactive); in the experiment with OVCAR-5 it was > 100 µM (inactive); with U-251, > 100 µM (inactive). For the same compound, the GI50 in the experiment with ACHN, in the experiment with T47D, in the experiment on TK-10, in the experiment on SF-295, in the experiment with Malme-3M and in the experiment with HOP-62 was > 100 µM (inactive) in each case. Also, in the experiment with SF-539, the GI50 was > 100 µM (inactive).
As to `COP(=N[Si](C)(C)C)(OC)OC`, the GI50 with NCI-H460, in the experiment on SNB-75, in the experiment on NCI-H226, in the experiment on M14, in the experiment on RXF 393 and in the experiment on OVCAR-8 was > 100 µM (inactive) throughout. Moreover, the GI50 in the experiment on UACC-257, with SK-MEL-2, in the experiment with OVCAR-4, in the experiment on HL-60, in the experiment on HOP-92 and in the experiment on OVCAR-5 was > 100 µM (inactive) each time. For the same compound, the GI50 in the experiment with U-251, in the experiment on ACHN, in the experiment on T47D, in the experiment with TK-10, with Malme-3M and with HOP-62 was > 100 µM (inactive) throughout. The GI50 in the experiment on SF-539 was > 100 µM (inactive).
As for `CCCOc1ccc(/C=C/C2=[N+](CCO)CCO2)cc1`, the GI50 in the experiment with NCI-H460, in the experiment with SNB-75, with NCI-H226, with M14, with RXF 393 and in the experiment with OVCAR-8 was > 100 µM (inactive) in each case. The GI50 in the experiment with UACC-257, in the experiment with SK-MEL-2, in the experiment with OVCAR-4, in the experiment on HL-60, in the experiment on HOP-92 and in the experiment on OVCAR-5 was > 100 µM (inactive) in each case. Further, the GI50 in the experiment with U-251, with ACHN, with T47D, in the experiment on TK-10, with SF-295 and in the experiment with Malme-3M was > 100 µM (inactive) each time. Also, the GI50 with HOP-62 and in the experiment on SF-539 was > 100 µM (inactive) throughout.
In the case of `COc1ccc(C[C@H]2NC[C@H](OC(C)=O)[C@H]2OC(C)=O)cc1`, the GI50 in the experiment with NCI-H460 was 0.172 µM (active); with SNB-75, 0.0721 µM (active); in the experiment with NCI-H226 it was 0.172 µM (active); with M14 it was 0.0951 µM (active); with RXF 393 it was 0.144 µM (active); in the experiment on OVCAR-8 it was 0.191 µM (active). Also, the GI50 in the experiment with UACC-257 was 0.21 µM (active); with SK-MEL-2, 0.184 µM (active); with OVCAR-4 it was 0.104 µM (active); in the experiment on HL-60 it was 0.1 µM (active); with HOP-92, 0.0417 µM (active); with OVCAR-5 it was 0.122 µM (active). For the same compound, the GI50 with U-251 was 0.304 µM (active); in the experiment on ACHN, 0.106 µM (active); with T47D, 0.112 µM (active); with TK-10, 0.31 µM (active); in the experiment with SF-295, 0.183 µM (active); in the experiment on Malme-3M, 0.158 µM (active). Besides, the GI50 was 0.195 µM (active) with HOP-62 and 0.441 µM (active) with SF-539.
With `NC(Cc1c2ccccc2cc2ccccc12)C(=O)O` (stereo unspecified), the GI50 with NCI-H460 was 59.8 µM (inactive); with SNB-75 it was 14 µM (inactive); in the experiment on NCI-H226, 22.5 µM (inactive); in the experiment on M14, > 100 µM (inactive); in the experiment on RXF 393, > 100 µM (inactive); in the experiment on OVCAR-8, 8.09 µM (inactive). The GI50 in the experiment with UACC-257 was > 100 µM (inactive); in the experiment with SK-MEL-2, > 100 µM (inactive); in the experiment on OVCAR-4, > 100 µM (inactive); with HL-60, > 100 µM (inactive); with HOP-92, 61.1 µM (inactive); in the experiment with OVCAR-5, > 100 µM (inactive). Besides, the GI50 is > 100 µM (inactive) in the experiment with U-251; 83 µM (inactive) in the experiment with ACHN; > 100 µM (inactive) in the experiment with T47D; > 100 µM (inactive) in the experiment on TK-10; > 100 µM (inactive) with SF-295; 80.7 µM (inactive) with Malme-3M. The GI50 in the experiment with HOP-62 is 67.3 µM (inactive); in the experiment with SF-539, > 100 µM (inactive).
Consider `c1cc2cc(Cc3ccc4[nH]ccc4c3)ccc2[nH]1`, for which the GI50 in the experiment with NCI-H460 was 15.8 µM (inactive); in the experiment on SNB-75, 17.9 µM (inactive); in the experiment with NCI-H226, 15.9 µM (inactive); with M14, 17.1 µM (inactive); in the experiment on RXF 393 it was 19.6 µM (inactive); in the experiment with UACC-257 it was 21.9 µM (inactive). The GI50 was 22.4 µM (inactive) with SK-MEL-2; 7.74 µM (inactive) in the experiment on OVCAR-4; 10.7 µM (inactive) in the experiment with HL-60; 15.2 µM (inactive) in the experiment on HOP-92; 19.5 µM (inactive) with OVCAR-5; 15.4 µM (inactive) with U-251. Moreover, the GI50 in the experiment on ACHN was 25.2 µM (inactive); with T47D, 15.6 µM (inactive); in the experiment with TK-10 it was 22.1 µM (inactive); in the experiment on SF-295 it was 31 µM (inactive); in the experiment with Malme-3M, 15.2 µM (inactive); with HOP-62, 15.7 µM (inactive). Also, in the experiment with SF-539, the GI50 was 16.5 µM (inactive).
Turning to `O=S(=O)(O)c1cc(O)c2c(/N=C\c3ccccc3O)cc(S(=O)(=O)O)cc2c1`, the GI50 in the experiment with NCI-H460 was > 100 µM (inactive); with SNB-75, 93.5 µM (inactive); in the experiment on NCI-H226, > 100 µM (inactive); in the experiment on M14, > 100 µM (inactive); in the experiment with RXF 393, > 100 µM (inactive); in the experiment with OVCAR-8, > 100 µM (inactive). The GI50 in the experiment with UACC-257 is > 100 µM (inactive); in the experiment on SK-MEL-2, > 100 µM (inactive); in the experiment with OVCAR-4, > 100 µM (inactive); with HL-60, 57.9 µM (inactive); in the experiment with HOP-92, > 100 µM (inactive); in the experiment with OVCAR-5, > 100 µM (inactive). Besides, the GI50 is > 100 µM (inactive) in the experiment with U-251; > 100 µM (inactive) with ACHN; 82.6 µM (inactive) in the experiment with T47D; > 100 µM (inactive) in the experiment on TK-10; > 100 µM (inactive) with SF-295; > 100 µM (inactive) in the experiment on Malme-3M. In addition, the GI50 in the experiment on HOP-62 and in the experiment on SF-539 was > 100 µM (inactive) each time.
For `Cc1cc(S(N)(=O)=O)c(SCc2nc(N)nc(N(C)C)n2)cc1Cl`, the GI50 in the experiment on NCI-H460, in the experiment with SNB-75, with NCI-H226, with M14, in the experiment on RXF 393 and with OVCAR-8 was > 10 µM (inactive) in each case. The GI50 in the experiment on UACC-257, with SK-MEL-2, in the experiment on OVCAR-4, with HL-60, in the experiment on HOP-92 and in the experiment with OVCAR-5 was > 10 µM (inactive) in each case. Also, the GI50 with U-251, in the experiment with ACHN, with T47D, in the experiment on TK-10, in the experiment on SF-295 and with Malme-3M was > 10 µM (inactive) throughout. In addition, the GI50 with HOP-62 and in the experiment on SF-539 was > 10 µM (inactive) in each case.
